# How the values were obtained:
# [1] = test system: LNCaP tumor transplanted mice; assay: Suppression of tumor growth by 90Y-labeled compound; assay type: in vivo; conditions: 3.7 MBq i.v., FIG. 8
# Protocol: A saline solution (100 μL) of [^90Y]Y-PSMA-DA1 (3.7 MBq) or [^90Y]Y-PSMA-DB (3.7 MBq) obtained by the above-described method was injected into each of the LNCaP tumor transplanted mice via the tail vein thereof (n=7). As a control group, 100 μL of saline was injected into each of the LNCaP tumor transplanted mice via the tail vein thereof (n=7).
# After the injection of the ^90Y-labeled compound, a tumor volume and a body weight were measured three times per week. The tumor volume was calculated based on a calculation formula “(tumor volume)=[(long side)×(short side)^2/2]”.
# [2] = compared with kidney value one hour after the injection; EJNMMI Res 2012, J Nucl Med 2017; cited from earlier work
SMILES,Time after injection at which a significant difference in tumor volume vs saline group was observed [1] [days],Accumulation in the kidney (literature) [2] [% ID/g]
O=C([O-])CN1CCN(C(CCC(=O)NCCCC[C@H](NC(=O)N[C@@H](CCC(=O)O)C(=O)O)C(=O)O)C(=O)[O-])CCN(CC(=O)[O-])CCN(C(CCC(=O)Nc2ccccc2)C(=O)[O-])CC1.[90Y+3] (some centres unmarked) [[^90Y]Y-PSMA-DB],≥ 33,–
O=C([O-])CN(CCN(CC(=O)[O-])Cc1cc(CCC(=O)NCCCCCC(=O)NCCCC[C@H](NC(=O)N[C@@H](CCC(=O)O)C(=O)O)C(=O)O)ccc1[O-])Cc1cc(CCC(=O)O)ccc1[O-].[68Ga+3].[OH3+] [[^68Ga]Ga-PSMA-11],–,139
